Experimental data taken from EP0201732A2, “Beta-2-mimetics of the 4-aminophenylethanolamine type for the prevention of peptic ulcers” (BOEHRINGER INGELHEIM VETMEDICA GMBH, priority 1985, dated 1986).
Counter-ions that a name gives are not always drawn.

How the values were obtained:
[1] = Feed consumption and final weight of the treated calves against the control group; type: in vivo, Kälber
Text: (§1) Beispielsweise wurde die Verbindung 1-(4-Amino-3,5,-dichforphenyl)-2-tertbutyfamina-äthanol- hydrochlorid in einer Tagesdosis von 2 mcg/kg Körpergewicht, verteilt auf 2 Dosen, welche dem Futter beigemischt war, 32 bei Beginn der Behandlung ca. 70 Tage alten und ca. 100 kg schweren Kälbern im Vergleich zu einer gleichgroßen Kontrollgruppe fortgesetzt verabreicht.
(§2) 14 Tage vor dem Schlachttermin wurde die Behandlung beendet.
Außerdem wies bei einem Futterverbrauch der Versuchsgruppe von 344,3 kg pro Tier bzw. von 343,7 kg pro Tier der Kontrollgruppe die erstere eine um ca. 10 kg höhere Endgewicht pro Tier auf. Bei einem annähernd gleichen Futterverbrauch pro Tier bedeutet dies eine Steigerung der Fleischproduktion von ca. 320 kg in der Versuchsgruppe.

[2] = Acute oral toxicity (LD50); conditions: mouse, in vivo, Maus, p.o.
Text: (§3) Die verabreichte Substanz ist gut verträglich.

[3] = system: peptische Labmagenulcera; experiment: Prevention of peptic abomasal ulcers in fattening calves, compound given as feed additive; abomasa dissected after slaughter; type: in vivo, Kälber; conditions: 2 mcg/kg body weight per day in 2 doses mixed into feed; 32 calves, ca. 70 days old and ca. 100 kg at start; treatment ended 14 days before slaughter; control group showed ulcers and haemorrhagic erosions
Text: as §1, §2
Nach der Schlachtung zeigten sich bei der Sektion der Labmägen der Kontrollgruppe Läsionen der Labmagenschleimhaut in folgenden verschiedenen Stadien: • 3 Tiere hatten je ein Ulcus bis zu einem Durchmesser von 20 mm • 4 Tiere hatten mehrere Ulcera mit einem Durchmesser von 2 bis 15 mm
Weitere Tiere wiesen hämorrhagische Erosionen auf den Magenschleimhautfalten auf.

[4] = Tolerability in the treated calves: side effects, haematology and serum enzymes (random samples); type: in vivo, Kälber
Text: as §1, §3

[5] = system: Magensäuresekretion; conditions: rat; doses higher by a factor of 100 than needed for the broncholytic effect; Arzneimittelforschung 26, 1404-1420 (1976); cited from earlier work
[6] = system: peptische Labmagenulcera; conditions: dose not given

SMILES: CC(C)(C)NCC(O)c1cc(Cl)c(N)c(Cl)c1 (centres unmarked) [1-(4-Amino-3,5-dichlor-phenyl)-2-tert.butylamino-äthanol-hydrochlorid]
- höhere Endgewicht pro Tier ([1]; test group versus control group, 2 mcg/kg per day in feed): ca. 10 kg
- Steigerung der Fleischproduktion ([1]; whole test group (32 calves) at nearly equal feed consumption per animal): ca. 320 kg
- LD50 [2]: 176 mg/kg
- Läsionen der Labmagenschleimhaut [3]: bei keinem Tier der Versuchsgruppe irgendwelche Läsionen der Labmagenschleimhaut feststellbar
- Nebenwirkungen ([4]; calves, 2 mcg/kg per day in feed): keinerlei Nebenwrikungen
- hämatologische Untersuchung und Enzyme SGOT, CPK, LDH und GLDH ([4]; random samples, test group versus control group): keine signifikanten Unterschiede

SMILES: CC(C)(C)NCC(O)c1cc(Cl)c(N)c(Cl)c1 (centres unmarked) [1-(4-Amino-3,5-dichlor-phenyl)-2-tert.butylamino-äthanol]
- Hemmwirkung auf die Magensäuresekretion [5]: eine Hemmwirkung auf die Magensäuresekretion

SMILES: CN/C(=N/CCSCc1nc[nH]c1C)NC#N [Cimetidine]
- Behandlungsversuch [6]: erfolglos
